In patent US5807889A, “Aminomethylindans, -benzofuranes and -benzothiophenes” (H. Lundbeck A/S, priority 1992, dated 1998):

molecular target: T1, 5-HT1A receptors (Rattus norvegicus, UniProt P19327); assay: 8-OH DPAT cue agonism in rats (drug discrimination); type: in vivo, male Wistar rats; design: agonist effects of a test compound on 5-HT1A receptors in vivo; from tissue; host or cells: living male Wistar rats (endogenous receptor, in vivo); conditions: sc, read-out: 8-OH DPAT Cue Agonism ED50, rats, s.c., usually 30 or 45 min before test
T1 sequence (P19327 1-422): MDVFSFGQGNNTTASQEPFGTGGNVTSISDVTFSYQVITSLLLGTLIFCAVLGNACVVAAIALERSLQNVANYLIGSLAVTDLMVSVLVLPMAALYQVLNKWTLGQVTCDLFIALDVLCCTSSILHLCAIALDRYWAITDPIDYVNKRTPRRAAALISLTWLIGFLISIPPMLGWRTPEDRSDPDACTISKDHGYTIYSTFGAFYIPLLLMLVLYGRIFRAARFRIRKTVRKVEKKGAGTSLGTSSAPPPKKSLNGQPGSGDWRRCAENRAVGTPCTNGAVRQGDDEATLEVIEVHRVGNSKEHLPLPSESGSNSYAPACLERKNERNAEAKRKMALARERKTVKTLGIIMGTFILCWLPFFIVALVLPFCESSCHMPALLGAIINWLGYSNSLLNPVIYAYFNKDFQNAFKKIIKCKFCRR
Description: 8-OH DPAT Cue Agonisme in Rats
This test model is used to determine the agonist effects of a test compound on 5-HT1A receptors in vivo. A related method is described by Tricklebank, M. D., et al, Eur. J. Pharmacol., 1987, 133, 47-56; Arnt, J. Pharmacology & Toxicology, 1989, 64, 165.
Male Wistar rats are trained to discriminate between 8-OH-DPAT (0.4 mg/kg, i.p., 15 min pretreatment) and physiological saline in operant chambers equipped with two response levers. Between the levers a dipper is placed, where water rewards (0.1 ml) are presented. The rats are water deprived for at least 24 h and work in a fixed ratio (FR) schedule (final FR=32).
Following 8-OH-DPAT administration responding is reinforced only on a designated (drug) lever, whereas responding on the opposite lever has no consequences. Following saline administration responding is reinforced on the lever opposite to the drug lever. Drug and saline trials alternate randomly between days. The level of s discrimination occuracy is expressed as the per cent drug responses and is calculated as the number of correct responses ×100 divided by the sum of the correct and incorrect responses before the first reward. The time to the first reward is also recorded as a measure of reaction time. When stable occuracy (mean correst responding=90%; individual rats at least 75% correct responding) is obtained test sessions are included between training days. Test compound is injected s.c. usually 30 min or 45 min, respectively, before beginning of the test. The test trial is terminated when a total of 32 responses are made on either lever or when 20 min have elapsed. No reward is given and the rats have free access to water for 20-30 min after the test. The effects are expressed as per cent drug responding. Only results from rats making at least 10 responses on one lever are included in data analysis. Furthermore, only test sessions in which at least half of the rats respond are included.
The per cent inhibition of drug response obtained for each dose of test compound is used to calculate ED50 values by log-probit analysis.

Row | Compound | ED50 [µmol/kg]
1 | CCCN(CCC)C1CCc2cccc(O)c2C1 (centres unmarked) [8-OH DPAT, 8-hydroxy-2-dipropylaminotetralin, reference compound] | 0.1

molecular target: T1, 5-HT1A receptors; assay: Inhibition of 3H-8-OH-DPAT binding to serotonin 5-HT1A receptors in rat brain in vitro; design: 5-HT1A receptors in membranes from rat brain minus cerebellum; from tissue; host or cells: brain minus cerebellum of male Wistar (Mol:Wist) rats, crude membranes; species or system rat (male Wistar); conditions: 3H 8-OH DPAT binding IC50, 1 nM 3H-8-OH-DPAT, rat brain minus cerebellum membranes, 37° C., 15 min
Description: Male Wistar (Mol:Wist) rats (125-250 g) are sacrificed and the brain is dissected and weighed. The brain tissue minus cerebellum is homogenized (Ultra Turrax, 20 sec) in 10 ml of ice cold 50 nM Tris buffer pH 8.0 (at 25° C.) containing 120 mM NaCl, 4 mM CaCl2 and 4 mM MgCl2. The homogenate is centrifuged at 20,000 g for 10 min at 4° C. The pellet is homogenized in 10 ml of buffer and incubated at 37° C. for 10 min. The homogenate is centrifuged as above and the pellet is homogenized in 100 vol (w/v) ice cold buffer containing 10 μM of pargyline.
Incubation tubes kept on ice in triplicate receive 100 μl of drug solution in water (or water for total binding) and 1000 μl of tissue suspension (final tissue content corresponds to 10 mg original tissue). […] After incubation for 15 min the samples are filtered under vacuum (0-50 mBar) through Whatman GF/F filters (25 mm). The tubes are rinsed with 5 ml ice cold 0.9% NaCl which is then poured on the filters. Thereafter, the filters are washed with 2×5 ml 0.9% NaCl. The filters are placed in counting vials and 4 ml of appropriate scintillation fluid (e.g. Picofluor™ 15) are added. After shaking for 1 h and storage 2 h in the dark the content of radioactivity is determined by liquid scintillation counting. Specific binding is obtained by subtracting the nonspecific binding in the presence of 10 μM of 5-HT.
For determination of the inhibition of binding five concentrations of drugs covering 3 decades are used.
The IC50 -value is determined as the concentration, at which the binding is 50% of the total binding in control samples minus the nonspecific binding in the presence of 10 μM of 5-HT.

Row | Compound | IC50 [nM]
2 | CCCN(CCC)CC1CCc2ccc(NCc3ccc(F)cc3)cc21 (centres unmarked) [Compound 6a, 1-(N,N-dipropylaminomethyl)-6-(4-fluorobenzylamino)indan] | 20
3 | CCCN(CCC)CC1CCc2ccc(NC(=O)Nc3ccccc3)cc21 (centres unmarked) [Compound 4a, 1-(N,N-dipropylaminomethyl)-6-(3-phenyl-1-ureido)indan] | 80
4 | CCCCCCCCCNC(=O)Nc1ccc2c(c1)C(CN(CCC)CCC)CC2 (centres unmarked) [Compound 4d, 1-(N,N-dipropylaminomethyl)-6-(3-nonyl-1-ureido)indan] | 170
5 | CCCN(CCC)CC1CCc2ccc(NC(C)=O)c(Cl)c21 (centres unmarked) [Compound 2f, 6-Acetylamino-7-chloro-1-(N,N-dipropylaminomethyl)indan] | 340
6 | O=CNc1ccc2c(c1)C(CN1CCCC1)CC2 (centres unmarked) [Compound 1d, 6-Formylamino-1-(1-pyrrolidinomethyl)indan] | 19
7 | CCCN(CCC)CC1CCc2ccc(NC(N)=O)cc21 (centres unmarked) [Compound 3a, 1-(N,N-dipropylaminomethyl)-6-ureido-indan] | 0.56
8 | CCCN(CCC)CC1CCc2ccc(NC(=O)NC)cc21 (centres unmarked) [Compound 4b, 1-(N,N-dipropylaminomethyl)-6-(3-methyl-1-ureido)indan] | 6.6
9 | CC(=O)Nc1ccc2c(c1)C(CN1CCCCC1)CS2 (centres unmarked) [Compound 2i, 5-acetylamino-3-(1-piperidinomethyl)-2,3-dihydrobenzothiophene] | 6.3
10 | CCCN(CCC)CC1CCc2ccc(NC(=O)NC3CCCC3)cc21 (centres unmarked) [Compound 4e, 6-(3-cyclopentyl-1-ureido)-1-(N,N-dipropylaminomethyl)indan] | 170
11 | CCCN(CCC)CC1CCc2ccc(NC(C)=O)cc21 (single isomer, unassigned; (-)) [Compound 8a, (-)-6-Acetylamino-1-(N,N-dipropylaminomethyl)indan] | 0.64
12 | CC(=O)Nc1ccc2c(c1)C(CN1CCCCC1)CC2 (centres unmarked) [Compound 5c, 6-acetylamino-1-(1-piperidinomethyl)indan] | 6.5
13 | CC(=O)Nc1ccc2c(c1)C(CN1CCCCC1)CC2 (single isomer, unassigned; (+)) [Compound 8f, (+)-6-acetylamino-1-(1-piperidinomethyl)indan] | 15
14 | CC(=O)Nc1ccc2c(c1)C(CN1CCCCC1)CC2 (single isomer, unassigned; (-)) [Compound 8e, (-)-6-acetylamino-1-(1-piperidinomethyl)indan] | 6.7
15 | CCCN(CCC)CC1CCc2ccc(NS(C)(=O)=O)c(Cl)c21 (centres unmarked) [Compound 2h, 7-chloro-1-(N,N-dipropylaminomethyl)-6-(methylsulphonylamino)indan] | 2000

More lines, now with the values ahead:

Row | IC50 [nM] | Compound
16 | 4.8 | CC(=O)Nc1ccc2c(c1)C(CN(C)CCCCN1CCN(c3ccc(F)cc3)C1=O)CC2 (centres unmarked) [Compound 13h, 6-Acetylamino-1-[N-[4-[3-(4-fluorophenyl)-2-imidazolidinon-1-yl]-1-butyl]-N-methylaminomethyl]indan]
17 | 27 | CC(=O)Nc1ccc2c(c1)C(CN(C)CCN1CCN(c3ccc(F)cc3)C1=O)CC2 (centres unmarked) [Compound 13e, 6-Acetylamino-1-[N-[2-[3-(4-fluorophenyl)-2-imidazolidinon-1-yl]ethyl]-N-methyl-aminomethyl]indan]
18 | 3.2 | CC(=O)Nc1ccc2c(c1)C(CN(C)CCCCCCN1CCN(C3CCCC3)C1=O)CC2 (centres unmarked) [Compound 13j, 6-Acetylamino-1-[N-[6-(3-cyclopentyl-2-imidazolidinon-1-yl)-1-hexyl]-N-methylaminomethyl]indan]
19 | 5.1 | CC(=O)Nc1ccc2c(c1)C(CN(C)CCCCN1CCN(C3CCCCC3)C1=O)CC2 (centres unmarked) [Compound 13f, 6-Acetylamino-1-[N-[4-(3-cyclohexyl-2-imidazolidinon-1-yl)-1-butyl]-N-methylaminomethyl]indan]
20 | 160 | CCCN(CCC)CC1CCc2ccc(NC(=O)Nc3ccc(F)cc3)cc21 (single isomer, unassigned; (-)) [Compound 10e, (-)-6-[3-(4-fluorophenyl)-1-ureido]-1-(N,N-dipropylaminomethyl)indan]
21 | 1 | CC(=O)Nc1ccc2c(c1)C(CN(C)CCCN1CCN(c3ccccc3)C1=O)CC2 (centres unmarked) [Compound 13g, 6-Acetylamino-1-[N-methyl-N-[3-(3-phenyl-2-imidazolidinon-1-yl)-1-propyl]aminomethyl]indan]
22 | 120 | CCCN(CCC)CC1CCc2cc(Br)c(NC(C)=O)cc21 (centres unmarked) [Compound 11d, 6-Acetylamino-5-bromo-1-(N,N-dipropylaminomethyl)indan]
23 | 14 | CCCN(CCC)CC1CCc2cc(Cl)c(NC(C)=O)cc21 (single isomer, unassigned; (+)) [Compound 11c, (+)-6-Acetylamino-5-chloro-1-(N,N-dipropylaminomethyl)indan]
24 | 22 | CCCN(CCC)CC1CCc2ccc(NC(=O)N(C)C)cc21 (single isomer, unassigned; (+)) [Compound 10d, (+)-6-(3,3-dimethyl-1-ureido)-1-(N,N-dipropylaminomethyl)indan]
25 | 4.2 | CCCN(CCC)CC1CCc2ccc(NC=O)cc21 (single isomer, unassigned; (+)) [Compound 10b, (+)-1-(N,N-dipropylaminomethyl)-6-formylaminoindan]
26 | 25 | CNCC1CCc2ccc(NC(C)=O)cc21 (centres unmarked) [Compound 12a, 6-Acetylamino-1-(N-methylaminomethyl)indan]
27 | 790 | CC(=O)Nc1ccc2c(c1)C(CN(C)CCCCN1CCNC1=O)CC2 (centres unmarked) [Compound 13k, 6-Acetylamino-1-[N-[4-(2-imidazolidinon-1-yl)-1-butyl]-N-methylaminomethyl]indan]
28 | 63 | CCCN(CCC)CC1CCc2ccc(NC(=O)Nc3ccc(F)cc3)cc21 (single isomer, unassigned; (+)) [Compound 10f, (+)-6-[3-(4-fluorophenyl)-1-ureido]-1-(N,N-dipropylaminomethyl)indan]
29 | 48 | CN(C)CC1CCc2ccc(NC=O)cc21 (single isomer, unassigned; (-)) [Compound 10g, (-)-1-(N,N-dimethylaminomethyl)-6-formylaminoindan]
30 | 220 | CN(C)CC1CCc2ccc(NC=O)cc21 (single isomer, unassigned; (+)) [Compound 10h, (+)-1-(N,N-dimethylaminomethyl)-6-formylaminoindan]
31 | 8.1 | CCCN(CCC)CC1CCc2ccc(NC(=O)N(C)C)cc21 (single isomer, unassigned; (-)) [Compound 10c, (-)-6-(3,3-dimethyl-1-ureido)-1-(N, N-dipropylaminomethyl)indan]
32 | 1 | CCCN(CCC)CC1CCc2ccc(NC=O)cc21 (single isomer, unassigned; (-)) [Compound 10a, (-)-1-(N,N-dipropylaminomethyl)-6-formylaminoindan]
33 | 2.2 | CC(=O)Nc1ccc2c(c1)C(CN(C)CCCN1CCN(C3CCCCC3)C1=O)CC2 (centres unmarked) [Compound 13i, 6-Acetylamino-1-[N-[3-(3-cyclohexyl-2-imidazolidinon-1-yl)-1-propyl]-N-methylaminomethyl]indan]

same assay, conditions: read-out: 3H 8-OH DPAT binding IC50; 1 nM 3H-8-OH-DPAT, rat brain minus cerebellum membranes, 37° C., 15 min

Row | IC50 [nM] | Compound
34 | 0.64 | CCCN(CCC)CC1CCc2ccc(NC(C)=O)cc21 (single isomer, unassigned; (+)) [Compound 8b, (+)-6-Acetylamino-1-(N,N-dipropylaminomethyl)indan]
35 | 60 | 3-[N-(2-phenylethyl)-N-propylaminomethyl]-5-formylaminomethyl-2,3-dihydrobenzothiophene [Compound 5b]
